Results on one molecule are retold here after publication PMC10321442 (Preventive Nutrition and Food Science, 2023).

The target of the experiment is α-amylase (Aspergillus oryzae, UniProt P0C1B3). Kind of experiment: amylose hydrolysis inhibition at […], peroxidase-glucose oxidase readout. It is filed as biochemical. The following applies: read-out: % inhibition at 0.50 mM.

Molecules are shown by their SMILES.

In general, inhibition refers to the percentage by which the read-out fell short of the control. With `COc1cc(/C=C/C(=O)O[C@H]2CC[C@]34C[C@]35CC[C@]3(C)[C@@H]([C@H](C)CCC=C(C)C)CC[C@@]3(C)[C@@H]5CC[C@H]4C2(C)C)ccc1O` [Cycloartenyl ferulate], the inhibition at 500 µM stood at 12.7 ± 1.11%.
